Data: ChEMBL document CHEMBL1201862, “PubChem BioAssay data set” (2004)
Active and inactive are the calls of the source.

Tests used:
[1] = YAP1 overexpression rescue of CTGF inhibition – DLD1 cells, RT-qPCR, cherry-pick, mechanism study for YAP1 pathway inhibitor project, dose response (AID 1053127); format: functional, cell-based; details: DLD-1
[2] = toxicity toward immortalized ovarian surface epithelium – cell-based, plate reader, dry powder samples, cytotoxicity control for PAX8 inhibitor project, dose response (AID 743045); format: functional
[3] = OVCAR-3 cell viability loss – plate reader, dry powder samples, PAX8 inhibitor project, dose response (AID 743044); format: functional, cell-based
[4] = OVCAR8 cell viability loss – plate reader, dry powder samples, PAX8 project, dose response (AID 743197); format: functional, cell-based; details: OVCAR-8
[5] = molecular target: Paired box protein Pax-8 (Homo sapiens, UniProt Q06710); assay: PAX8 transcriptional activity inhibition in RMG-I – RMG-I cells, luciferase, cherry-pick, dose response (AID 687027); format: functional, cell-based;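 further: luciferase reporter driven by Pax8 target thyroperoxidase promoter measured by SteadyGlo luminescence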
[6] = blockers of HIV-1 envelope-mediated cell-cell fusion – cherry-pick, dose response (AID 652057); format: functional, cell-based
[7] = P. falciparum Dd2 growth inhibitors, dose response, SYBR Green, cherry-picked samples (AID 1159567); format: functional, cell-based
[8] = HIV-1 AD8 envelope cell-cell fusion blockers – cherry-pick, dose response (AID 652062); format: functional, cell-based;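 further: luciferase signal from cell-cell fusion driven by HIV-1 clade B AD8 Env; potency is for inhibitors of fusion seen as a drop in luminescence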
[9] = CTGF mRNA reduction in DLD1 cells – cell-based, DLD1 colon cancer, RT-qPCR, cherry-pick, dose response (AID 1053122); format: functional; details: Cancer cell lines
[10] = kidney cell line viability loss – HEK293T, luminescence plate reader, powder samples, set 4, cytotoxicity control, dose response (AID 651863); format: functional, cell-based; details: HEK293
[11] = molecular target: Metabotropic glutamate receptor 5 (Rattus norvegicus, UniProt P31424); assay: Identification of a glycine sulfonamide based non-MPEP site positive allosteric potentiator (PAM) of mGlu5 (calcium_assay).; format: functional
[12] = human cervical cancer cell viability loss – 24 h, plate reader, dry powder, cytotoxicity control, dose response (AID 686928); format: functional, cell-based; details: HeLa
[13] = ATP-based viability loss in HeLa cells – cell-based, CellTiter-Glo luminescence, dry powder, set 2, cytotoxicity control, dose response (AID 720593); format: functional
[14] = ATP-based viability loss in HepG2 cells – cell-based, CellTiter-Glo luminescence, dry powder, set 3, cytotoxicity control, dose response (AID 720594); format: functional
[15] = ATP-based viability loss in HEK293T cells – cell-based, CellTiter-Glo luminescence, dry powder, set 2, cytotoxicity control, dose response (AID 720595); format: functional; details: HEK293
[16] = molecular target: T1, Oxysterols receptor LXR-beta (Homo sapiens, UniProt P55055); assay: LXR agonists, Gal4 luciferase reporter, dose response, counter-screen for ssDAF-12 agonist project, cell-based, luminescence, HEK293, S. stercoralis campaign (AID 720737); format: functional; details: read-out: IC50 (the source's name)
T1 sequence (P55055 whole entry): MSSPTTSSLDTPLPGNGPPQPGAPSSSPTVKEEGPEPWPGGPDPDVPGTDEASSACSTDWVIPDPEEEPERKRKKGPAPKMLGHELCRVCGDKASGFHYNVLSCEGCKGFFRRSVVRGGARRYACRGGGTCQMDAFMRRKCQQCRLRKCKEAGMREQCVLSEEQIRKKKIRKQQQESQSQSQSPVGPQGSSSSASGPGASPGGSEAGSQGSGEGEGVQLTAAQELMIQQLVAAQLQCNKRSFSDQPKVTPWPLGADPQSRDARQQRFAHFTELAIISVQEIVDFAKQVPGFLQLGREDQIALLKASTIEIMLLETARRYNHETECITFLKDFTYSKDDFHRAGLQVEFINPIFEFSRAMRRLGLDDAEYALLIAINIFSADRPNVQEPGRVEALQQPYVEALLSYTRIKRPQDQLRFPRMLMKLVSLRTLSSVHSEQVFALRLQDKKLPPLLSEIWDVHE

[17] = Luminescence-based cell-based high throughput dose response assay to identify activators of the DAF-12 from the parasite S. stercoralis (ssDAF-12).; format: functional
[18] = inhibitors of TRPM1-promoter reporter in SK-MEL-5 – cell-based, luciferase, dry powder, set 8, MITF inhibitor project, dose response (AID 624430); format: functional
[19] = MITF Orthogonal Assay: SK-MEL-5 CTG Assay Measured in Cell-Based System Using Plate Reader - 2084-02_Inhibitor_Dose_DryPowder_Activity_Set7.; format: functional
[20] = MITF: Counter assay: A375 proliferation Measured in Cell-Based System Using Plate Reader - 2084-03_Inhibitor_Dose_DryPowder_Activity_Set8.; format: functional; details: A-375

Chain of Paired box protein Pax-8 (Q06710 whole entry, the tested form may be a part): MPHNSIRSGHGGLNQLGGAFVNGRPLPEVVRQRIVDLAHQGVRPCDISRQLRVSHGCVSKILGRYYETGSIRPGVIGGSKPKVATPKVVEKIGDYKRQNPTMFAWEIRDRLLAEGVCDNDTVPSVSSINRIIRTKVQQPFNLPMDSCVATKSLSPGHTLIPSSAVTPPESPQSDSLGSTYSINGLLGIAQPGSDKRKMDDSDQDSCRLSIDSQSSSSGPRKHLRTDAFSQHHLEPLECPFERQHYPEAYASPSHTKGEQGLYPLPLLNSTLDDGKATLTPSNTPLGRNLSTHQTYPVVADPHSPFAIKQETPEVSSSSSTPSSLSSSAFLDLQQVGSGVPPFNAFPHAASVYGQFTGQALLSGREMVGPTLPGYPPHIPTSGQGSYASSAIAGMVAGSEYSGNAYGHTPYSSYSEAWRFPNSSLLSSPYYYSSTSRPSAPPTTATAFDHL
Chain of Metabotropic glutamate receptor 5 (P31424 whole entry): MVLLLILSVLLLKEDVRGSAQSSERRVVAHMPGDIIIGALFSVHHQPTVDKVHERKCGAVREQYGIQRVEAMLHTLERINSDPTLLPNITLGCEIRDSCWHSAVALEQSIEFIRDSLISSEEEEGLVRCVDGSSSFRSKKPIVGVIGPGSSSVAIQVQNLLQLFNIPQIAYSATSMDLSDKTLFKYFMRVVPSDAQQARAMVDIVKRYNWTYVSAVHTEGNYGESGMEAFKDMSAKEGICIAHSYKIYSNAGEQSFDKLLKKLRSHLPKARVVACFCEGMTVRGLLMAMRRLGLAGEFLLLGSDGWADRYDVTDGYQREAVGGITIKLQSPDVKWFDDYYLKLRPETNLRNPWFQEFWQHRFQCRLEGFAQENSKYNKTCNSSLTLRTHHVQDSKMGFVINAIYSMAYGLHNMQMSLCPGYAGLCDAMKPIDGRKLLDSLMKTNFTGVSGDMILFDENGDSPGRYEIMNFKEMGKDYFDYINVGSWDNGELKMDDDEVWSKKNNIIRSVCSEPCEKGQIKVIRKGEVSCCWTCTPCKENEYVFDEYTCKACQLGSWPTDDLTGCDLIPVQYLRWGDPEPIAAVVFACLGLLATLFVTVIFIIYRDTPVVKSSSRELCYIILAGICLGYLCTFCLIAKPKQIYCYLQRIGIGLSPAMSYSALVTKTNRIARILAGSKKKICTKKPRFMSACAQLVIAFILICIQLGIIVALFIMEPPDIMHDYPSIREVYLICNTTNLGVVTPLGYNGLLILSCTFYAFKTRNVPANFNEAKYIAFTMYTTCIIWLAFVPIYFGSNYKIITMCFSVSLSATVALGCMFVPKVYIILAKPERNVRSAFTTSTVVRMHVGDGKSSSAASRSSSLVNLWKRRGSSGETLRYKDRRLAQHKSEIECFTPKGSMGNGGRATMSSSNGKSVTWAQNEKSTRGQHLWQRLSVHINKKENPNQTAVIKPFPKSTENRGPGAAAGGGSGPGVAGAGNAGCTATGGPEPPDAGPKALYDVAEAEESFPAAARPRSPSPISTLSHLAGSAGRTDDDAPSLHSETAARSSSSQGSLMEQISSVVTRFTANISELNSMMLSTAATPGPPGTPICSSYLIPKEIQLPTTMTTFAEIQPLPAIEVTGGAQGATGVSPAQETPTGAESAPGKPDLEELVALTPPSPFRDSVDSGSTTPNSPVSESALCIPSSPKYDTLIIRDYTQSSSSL

**Q.** Which AC50 [1] does the source give for `C[C@@H]1CN([C@@H](C)CO)C(=O)CCCn2nncc2CO[C@@H]1CN(C)C(=O)c1cc(-c2ccccc2)on1` here?
**A.** > 26 µM (inactive)

**Q.** For `CN1c2ccc(-c3ccccc3)cc2[C@H]2[C@H](CCN2C(=O)NC2CCCCC2)[C@@H]1CO`, which AC50 [2] is on record?
**A.** 53.9 µM (active)

**Q.** What about the AC50 [3] of the same compound?
**A.** 23.4 µM (active)

**Q.** What about the AC50 [4] of the same compound?
**A.** 25.3 µM (active)

**Q.** And the AC50 [5]?
**A.** 11.5 µM (active)

**Q.** Which results are given for `N#C[C@@H]1[C@H](c2ccc(-c3cccc(F)c3)cc2)[C@H](CO)N1C(=O)NC1CCCC1`?
**A.** AC50 [6]: 39.5 µM (active); AC50 [7]: 2.84 µM (active); AC50 [8]: 0.768 µM (active); AC50 [9]: > 26 µM (inactive)

**Q.** Which AC50 [10] does the source give for `COC(=O)[C@@H]1CCCC[C@@H]1C(=O)N1CCc2ccccc2[C@H]1CN1C(=O)c2ccccc2C1=O` here?
**A.** > 52 µM (inactive)

**Q.** For `CS(=O)(=O)N(CC(=O)NCC(F)(F)F)c1ccccc1Cl`, which EC50 [11] is on record?
**A.** 10 µM (inconclusive)

**Q.** For `CCCCCCCCCC(=O)[C@@H](O)CC.CCCCCCCCCC(=O)[C@H](O)CC`, which AC50 [12] is on record?
**A.** > 200 µM (inactive)

**Q.** With `CCn1nc(-c2cccnc2)nc2c(=O)n(C)c(=O)nc1-2` as the compound, how does the AC50 [13] read?
**A.** 4.34 µM (active)

**Q.** What about the AC50 [14] of the same compound?
**A.** 3.24 µM (active)

**Q.** And the AC50 [15]?
**A.** 16.4 µM (active)

**Q.** Which EC50 [16] does the source give for `COC(=O)[C@]12C=CCN1[C@H](c1ccc(OC)c(OC)c1)c1c(c3ccccc3n1S(=O)(=O)c1ccc(C)cc1)C2` here?
**A.** > 67.5 µM (inactive)

**Q.** And the IC50 [17]?
**A.** > 67.5 µM (inactive)

**Q.** What does the source list for `CC(C)N1CCN(C2=C(Nc3cccc(Br)c3)C(=O)c3ccccc3C2=O)CC1`?
**A.** AC50 [18]: 2.52 µM (active); AC50 [19]: 11.5 µM (active); AC50 [20]: 48.5 µM (active)
